Experimental data as given in article PMC5218480 (PLoS ONE, 2017).

Test system: MV-4-11 cells
Test: Gene expression microarray analysis (Affymetrix PrimeView) and GSEA
Assay type: cell-based, human
Parameters: RFU PODN (11730768_x_at) / Fold change /veh PODN (11730768_x_at) / RFU LINC00158 (11744669_a_at) / Fold change /veh LINC00158 (11744669_a_at) / RFU DUSP10 (11751237_a_at) / Fold change /veh DUSP10 (11751237_a_at) / RFU ID3 (11757404_x_at) / Fold change /veh ID3 (11757404_x_at) / RFU PLEKHG5 (11737974_s_at) / Fold change /veh PLEKHG5 (11737974_s_at) / RFU LRRC4B (11730491_at) / Fold change /veh LRRC4B (11730491_at) / RFU GIMAP4 (11747438_a_at) / Fold change /veh GIMAP4 (11747438_a_at) / RFU KRT8 (11758183_x_at) / Fold change /veh KRT8 (11758183_x_at) / RFU CNN1 (11734310_a_at) / Fold change /veh CNN1 (11734310_a_at) / RFU VPS37D (11726825_at) / Fold change /veh VPS37D (11726825_at) / RFU C10orf10 (11716522_x_at) / Fold change /veh C10orf10 (11716522_x_at) / RFU KIR2DL2 /// KIR2DL4 /// KIR2DL5A /// KIR2DL5B /// KIR2DS1 /// KIR2DS2 /// KIR2DS3 /// KIR2DS4 /// KIR3DL3 /// KIR3DL3 /// KIR3DS1 (11738374_at) / Fold change /veh KIR2DL2 /// KIR2DL4 /// KIR2DL5A /// KIR2DL5B /// KIR2DS1 /// KIR2DS2 /// KIR2DS3 /// KIR2DS4 /// KIR3DL3 /// KIR3DL3 /// KIR3DS1 (11738374_at) / RFU C1QL1 (11718748_at) / Fold change /veh C1QL1 (11718748_at) / RFU TMPRSS4 (11747572_a_at) / Fold change /veh TMPRSS4 (11747572_a_at) / RFU HAMP (11756126_x_at) / Fold change /veh HAMP (11756126_x_at) / RFU RNFT2 (11725882_a_at) / Fold change /veh RNFT2 (11725882_a_at) / RFU NR4A2 (11747474_a_at) / Fold change /veh NR4A2 (11747474_a_at) / RFU ABCC12 (11746883_a_at) / Fold change /veh ABCC12 (11746883_a_at) / RFU TMEM136 (11760407_x_at) / Fold change /veh TMEM136 (11760407_x_at) / RFU CLDN22 /// WWC2 (11732394_at) / Fold change /veh CLDN22 /// WWC2 (11732394_at) / RFU HLA-DPB1 (11760878_x_at) / Fold change /veh HLA-DPB1 (11760878_x_at) / RFU SPINT1 (11716480_a_at) / Fold change /veh SPINT1 (11716480_a_at) / RFU GAP43 (11754022_s_at) / Fold change /veh GAP43 (11754022_s_at) / RFU A4GNT (11735810_at) / Fold change /veh A4GNT (11735810_at) / RFU PRB3 (11715151_x_at) / Fold change /veh PRB3 (11715151_x_at) / RFU TUBB4B (11761932_at) / Fold change /veh TUBB4B (11761932_at) / RFU CAPN14 (11732068_a_at) / Fold change /veh CAPN14 (11732068_a_at) / RFU TMCC2 (11721928_a_at) / Fold change /veh TMCC2 (11721928_a_at) / RFU IRGQ (11745062_a_at) / Fold change /veh IRGQ (11745062_a_at) / RFU FAM174B (11720279_a_at) / Fold change /veh FAM174B (11720279_a_at) / RFU TMPRSS4 (11748680_a_at) / Fold change /veh TMPRSS4 (11748680_a_at) / RFU FAM212B (11763350_a_at) / Fold change /veh FAM212B (11763350_a_at) / RFU PLEKHG5 (11743358_a_at) / Fold change /veh PLEKHG5 (11743358_a_at) / RFU ZSCAN30 (11745921_a_at) / Fold change /veh ZSCAN30 (11745921_a_at) / RFU CMKLR1 (11741424_a_at) / Fold change /veh CMKLR1 (11741424_a_at) / RFU LOC101060620 /// MAPK8IP1 (11723275_at) / Fold change /veh LOC101060620 /// MAPK8IP1 (11723275_at) / RFU SPTSSB (11747773_x_at) / Fold change /veh SPTSSB (11747773_x_at) / RFU PRSS12 (11739890_at) / Fold change /veh PRSS12 (11739890_at) / RFU BIN1 (11741810_x_at) / Fold change /veh BIN1 (11741810_x_at) / RFU WNT11 (11732464_a_at) / Fold change /veh WNT11 (11732464_a_at) / RFU C10orf10 (11716521_a_at) / Fold change /veh C10orf10 (11716521_a_at) / RFU C5orf56 (11738089_at) / Fold change /veh C5orf56 (11738089_at) / RFU CYB561 (11721691_x_at) / Fold change /veh CYB561 (11721691_x_at) / RFU ANKRD19P (11752326_a_at) / Fold change /veh ANKRD19P (11752326_a_at) / RFU OR2T12 /// OR2T33 /// OR2T8 (11738714_s_at) / Fold change /veh OR2T12 /// OR2T33 /// OR2T8 (11738714_s_at) / RFU VCAN (11748164_a_at) / Fold change /veh VCAN (11748164_a_at) / RFU JSRP1 (11732532_at) / Fold change /veh JSRP1 (11732532_at) / RFU KRTAP10-11 (11738290_x_at) / Fold change /veh KRTAP10-11 (11738290_x_at) / RFU MYO3A (11730013_a_at) / Fold change /veh MYO3A (11730013_a_at) / RFU EBF3 (11725865_a_at) / Fold change /veh EBF3 (11725865_a_at) / RFU CAMK2N1 (11719241_x_at) / Fold change /veh CAMK2N1 (11719241_x_at) / RFU C5orf56 (11738088_a_at) / Fold change /veh C5orf56 (11738088_a_at) / RFU OLFML3 (11715873_a_at) / Fold change /veh OLFML3 (11715873_a_at) / RFU LOC100653217 /// NTM (11731650_a_at) / Fold change /veh LOC100653217 /// NTM (11731650_a_at) / RFU MAPK11 (11762145_a_at) / Fold change /veh MAPK11 (11762145_a_at) / RFU FIZ1 (11724087_x_at) / Fold change /veh FIZ1 (11724087_x_at) / RFU OASL (11726364_x_at) / Fold change /veh OASL (11726364_x_at) / RFU SOX15 (11748057_x_at) / Fold change /veh SOX15 (11748057_x_at) / RFU CD79A (11719716_a_at) / Fold change /veh CD79A (11719716_a_at) / RFU HIST1H1D (11736915_at) / Fold change /veh HIST1H1D (11736915_at) / RFU CASKIN2 (11723855_a_at) / Fold change /veh CASKIN2 (11723855_a_at) / RFU LOC730098 (11760151_x_at) / Fold change /veh LOC730098 (11760151_x_at) / RFU OR4N2 (11742367_at) / Fold change /veh OR4N2 (11742367_at) / RFU PRRT2 (11749266_a_at) / Fold change /veh PRRT2 (11749266_a_at) / RFU SNX32 (11753110_a_at) / Fold change /veh SNX32 (11753110_a_at) / RFU CDHR5 (11726645_a_at) / Fold change /veh CDHR5 (11726645_a_at) / RFU RCAN1 (11760418_a_at) / Fold change /veh RCAN1 (11760418_a_at) / RFU FAM167A (11723789_a_at) / Fold change /veh FAM167A (11723789_a_at) / RFU FAM26E (11764081_at) / Fold change /veh FAM26E (11764081_at) / RFU ISYNA1 (11749810_s_at) / Fold change /veh ISYNA1 (11749810_s_at) / RFU ACY1 (11761880_at) / Fold change /veh ACY1 (11761880_at) / RFU 11764098_at / Fold change /veh 11764098_at / RFU SAMD14 (11745864_x_at) / Fold change /veh SAMD14 (11745864_x_at) / RFU NPB (11741838_a_at) / Fold change /veh NPB (11741838_a_at) / RFU TMPRSS6 (11731388_a_at) / Fold change /veh TMPRSS6 (11731388_a_at) / RFU KRTAP10-2 (11738614_at) / Fold change /veh KRTAP10-2 (11738614_at) / RFU ARHGAP8 /// PRR5-ARHGAP8 (11727945_x_at) / Fold change /veh ARHGAP8 /// PRR5-ARHGAP8 (11727945_x_at) / RFU KRTAP5-7 /// NADSYN1 (11734609_at) / Fold change /veh KRTAP5-7 /// NADSYN1 (11734609_at) / RFU RASL12 (11751679_a_at) / Fold change /veh RASL12 (11751679_a_at) / RFU CDKN2B (11736163_a_at) / Fold change /veh CDKN2B (11736163_a_at) / RFU PRF1 (11729649_at) / Fold change /veh PRF1 (11729649_at) / RFU, ZNF638 /// ZNF638-IT1 / Fold change vs veh, ZNF638 /// ZNF638-IT1 / RFU, PANK3 / Fold change vs veh, PANK3 / RFU, SH3YL1 / Fold change vs veh, SH3YL1 / RFU, ZEB2 / Fold change vs veh, ZEB2 / RFU, NRIP1 / Fold change vs veh, NRIP1 / RFU, PTTG1IP / Fold change vs veh, PTTG1IP / RFU, CAPN2 / Fold change vs veh, CAPN2 / RFU, MED14 / Fold change vs veh, MED14 / RFU, SNORA58 / Fold change vs veh, SNORA58 / RFU, C1orf63 / Fold change vs veh, C1orf63 / RFU, LRRFIP1 / Fold change vs veh, LRRFIP1 / RFU, NDUFAF7 / Fold change vs veh, NDUFAF7 / RFU, SLC12A2 / Fold change vs veh, SLC12A2 / RFU, IBTK / Fold change vs veh, IBTK / RFU, ESF1 / Fold change vs veh, ESF1 / Fold change vs veh, TMEM50B / RFU, TAOK1 / Fold change vs veh, TAOK1 / RFU, ACBD3 / Fold change vs veh, ACBD3 / RFU, TMA16 / Fold change vs veh, TMA16 / RFU, RWDD3 / Fold change vs veh, RWDD3 / RFU, BCAT1 / Fold change vs veh, BCAT1 / RFU, EDEM3 / Fold change vs veh, EDEM3 / RFU, TMEM33 / Fold change vs veh, TMEM33 / RFU, WDR75 / Fold change vs veh, WDR75 / RFU, AHCTF1 / Fold change vs veh, AHCTF1 / RFU, TFRC / Fold change vs veh, TFRC / RFU, ZDHHC17 / Fold change vs veh, ZDHHC17 / RFU, NOM1 / Fold change vs veh, NOM1 / RFU, ARL8B / Fold change vs veh, ARL8B / RFU, ZBTB11 / Fold change vs veh, ZBTB11 / RFU, TAMM41 / Fold change vs veh, TAMM41 / RFU, KIAA1704 /// LOC100996395 / Fold change vs veh, KIAA1704 /// LOC100996395 / RFU, ING1 / Fold change vs veh, ING1 / RFU, TRMT61B / Fold change vs veh, TRMT61B / RFU, FUBP3 / Fold change vs veh, FUBP3 / RFU, TP53 / Fold change vs veh, TP53 / RFU, TNKS2 / Fold change vs veh, TNKS2 / RFU, ZFP14 / Fold change vs veh, ZFP14 / RFU, ACTR2 / Fold change vs veh, ACTR2 / RFU, PPP3R1 / Fold change vs veh, PPP3R1 / RFU, PIK3R1 / Fold change vs veh, PIK3R1 / RFU, HNRNPA1 / Fold change vs veh, HNRNPA1 / RFU, RNF170 / Fold change vs veh, RNF170 / RFU, ZNF28 / Fold change vs veh, ZNF28 / RFU, RNGTT / Fold change vs veh, RNGTT / RFU, OGT / Fold change vs veh, OGT / RFU, BRD1 / Fold change vs veh, BRD1 / RFU, MARS / Fold change vs veh, MARS / RFU, ZNF655 / Fold change vs veh, ZNF655 / RFU, FAHD1 / Fold change vs veh, FAHD1 / RFU, BDP1 / Fold change vs veh, BDP1 / RFU, LRRCC1 / Fold change vs veh, LRRCC1 / RFU, ARID1A / Fold change vs veh, ARID1A / RFU, ZNF146 / Fold change vs veh, ZNF146 / RFU, ZNF330 / Fold change vs veh, ZNF330 / RFU, GPN3 / Fold change vs veh, GPN3 / RFU, C9orf123 / Fold change vs veh, C9orf123 / RFU, N4BP2L2 / Fold change vs veh, N4BP2L2 / RFU, ARFIP1 / Fold change vs veh, ARFIP1 / RFU, FAM179B / Fold change vs veh, FAM179B / RFU, BCL10 / Fold change vs veh, BCL10 / RFU, UHRF1BP1L / Fold change vs veh, UHRF1BP1L / RFU, BET1 / Fold change vs veh, BET1 / RFU, CNOT2 / Fold change vs veh, CNOT2 / RFU, ZNF268 / Fold change vs veh, ZNF268 / Fold change vs veh, ZNF507 / RFU, DGCR2 / Fold change vs veh, DGCR2 / RFU, WDSUB1 / Fold change vs veh, WDSUB1 / Fold change vs veh, HSP90B1 /// MIR3652 / RFU, ADSS / Fold change vs veh, ADSS / RFU, GK / Fold change vs veh, GK / RFU, ZNF148 / Fold change vs veh, ZNF148 / RFU, TAF9 / Fold change vs veh, TAF9 / RFU, SLC1A5 / Fold change vs veh, SLC1A5 / RFU, SLMO2 / Fold change vs veh, SLMO2 / RFU, ABCC4 / Fold change vs veh, ABCC4 / RFU, LOC101060439 /// RAP1B / Fold change vs veh, LOC101060439 /// RAP1B / RFU, RFX7 / Fold change vs veh, RFX7 / RFU, GTPBP10 / Fold change vs veh, GTPBP10 / RFU, CNEP1R1 / Fold change vs veh, CNEP1R1 / RFU, BIVM-ERCC5 /// ERCC5 / Fold change vs veh, BIVM-ERCC5 /// ERCC5 / RFU, ILF3 / Fold change vs veh, ILF3 / RFU 11762660_at / Fold change /veh 11762660_at / RFU VCAN (11757783_s_at) / Fold change /veh VCAN (11757783_s_at) / RFU DDX43 (11728927_at) / Fold change /veh DDX43 (11728927_at) / RFU KRT8 (11758188_x_at) / Fold change /veh KRT8 (11758188_x_at) / RFU NKD1 (11759106_at) / Fold change /veh NKD1 (11759106_at) / RFU SRD5A1 (11742802_a_at) / Fold change /veh SRD5A1 (11742802_a_at) / RFU TPSAB1 /// TPSB2 (11721975_s_at) / Fold change /veh TPSAB1 /// TPSB2 (11721975_s_at) / RFU GSTM3 (11746129_a_at) / Fold change /veh GSTM3 (11746129_a_at) / RFU IL23R (11737362_x_at) / Fold change /veh IL23R (11737362_x_at) / RFU TMEM51 (11727254_a_at) / Fold change /veh TMEM51 (11727254_a_at) / RFU PIWIL2 (11732686_x_at) / Fold change /veh PIWIL2 (11732686_x_at) / RFU ORM1 (11744905_x_at) / Fold change /veh ORM1 (11744905_x_at) / RFU CCDC152 (11743942_at) / Fold change /veh CCDC152 (11743942_at) / RFU ECM1 (11717891_a_at) / Fold change /veh ECM1 (11717891_a_at) / RFU IL23R (11748794_a_at) / Fold change /veh IL23R (11748794_a_at) / RFU TNFAIP8L3 (11732012_x_at) / Fold change /veh TNFAIP8L3 (11732012_x_at) / RFU MBOAT4 (11741988_at) / Fold change /veh MBOAT4 (11741988_at) / RFU 11764193_at / Fold change /veh 11764193_at / RFU TMEM53 (11763286_at) / Fold change /veh TMEM53 (11763286_at) / RFU MAGEB2 (11727129_at) / Fold change /veh MAGEB2 (11727129_at) / RFU TMEM200A (11744735_a_at) / Fold change /veh TMEM200A (11744735_a_at) / RFU CCDC152 (11751479_a_at) / Fold change /veh CCDC152 (11751479_a_at) / RFU FAM211A (11726209_a_at) / Fold change /veh FAM211A (11726209_a_at) / RFU RGS16 (11746705_a_at) / Fold change /veh RGS16 (11746705_a_at) / RFU VCAN (11755009_s_at) / Fold change /veh VCAN (11755009_s_at) / RFU RHOB (11743442_s_at) / Fold change /veh RHOB (11743442_s_at) / RFU RGS16 (11720943_a_at) / Fold change /veh RGS16 (11720943_a_at) / RFU RGS16 (11720944_at) / Fold change /veh RGS16 (11720944_at) / RFU, VPS4B / Fold change vs veh, VPS4B / RFU, CREB1 / Fold change vs veh, CREB1 / RFU, DNAJC13 / Fold change vs veh, DNAJC13 / RFU, GNAQ / Fold change vs veh, GNAQ / RFU, CDK5R1 / Fold change vs veh, CDK5R1 / RFU, ZRANB3 / Fold change vs veh, ZRANB3 / RFU, CUL4A / Fold change vs veh, CUL4A / RFU, CCNY / Fold change vs veh, CCNY / RFU, UFL1 / Fold change vs veh, UFL1 / RFU, COG3 / Fold change vs veh, COG3 / RFU, DIAPH2 / Fold change vs veh, DIAPH2 / RFU, SKA2 / Fold change vs veh, SKA2 / RFU, AFF3 / Fold change vs veh, AFF3 / RFU, LMF1 / Fold change vs veh, LMF1 / RFU, IPO11 / Fold change vs veh, IPO11 / RFU, DFFB / Fold change vs veh, DFFB / RFU, FOXP1 / Fold change vs veh, FOXP1 / RFU, CARD8 / Fold change vs veh, CARD8 / RFU, STRN3 / Fold change vs veh, STRN3 / RFU, ADK / Fold change vs veh, ADK / RFU, RASSF2 / Fold change vs veh, RASSF2 / RFU, WIPF1 / Fold change vs veh, WIPF1 / RFU, LARP1B / Fold change vs veh, LARP1B / RFU, RASA1 / Fold change vs veh, RASA1 / RFU, RB1 / Fold change vs veh, RB1 / RFU, PPFIA1 / Fold change vs veh, PPFIA1 / RFU, MAT2A / Fold change vs veh, MAT2A / RFU, CCT5 / Fold change vs veh, CCT5 / RFU, WDR92 / Fold change vs veh, WDR92 / RFU, CUX1 / Fold change vs veh, CUX1 / RFU, TTC7A / Fold change vs veh, TTC7A / RFU, TMEM135 / Fold change vs veh, TMEM135 / RFU, DEPTOR / Fold change vs veh, DEPTOR / RFU, CPM / Fold change vs veh, CPM / RFU, DNAJB6 / Fold change vs veh, DNAJB6 / RFU, CACNA2D3 / Fold change vs veh, CACNA2D3 / RFU, DTX4 / Fold change vs veh, DTX4 / RFU, TFCP2 / Fold change vs veh, TFCP2 / RFU, GMCL1 /// GMCL1P1 / Fold change vs veh, GMCL1 /// GMCL1P1 / RFU, AEBP2 / Fold change vs veh, AEBP2 / RFU, SNHG1 /// SNORD22 /// SNORD25 /// SNORD26 /// SNORD27 /// SNORD28 /// SNORD29 /// SNORD31 / Fold change vs veh, SNHG1 /// SNORD22 /// SNORD25 /// SNORD26 /// SNORD27 /// SNORD28 /// SNORD29 /// SNORD31 / Fold change (Aza/veh), C12orf56 (ProbeSet 11735607_a_at) / Fold change (ACY-1035/veh), C12orf56 (ProbeSet 11735607_a_at) / Fold change (Aza/veh), FGFR1OP (ProbeSet 11751329_s_at) / Fold change (ACY-1035/veh), FGFR1OP (ProbeSet 11751329_s_at) / Fold change (Aza/veh), VPS36 (ProbeSet 11739960_a_at) / Fold change (ACY-1035/veh), VPS36 (ProbeSet 11739960_a_at) / RFU SYPL1 (11715823_x_at) / Fold change /veh SYPL1 (11715823_x_at) / RFU IGFBP7 (11715501_s_at) / Fold change /veh IGFBP7 (11715501_s_at) / RFU REEP3 (11722064_at) / Fold change /veh REEP3 (11722064_at) / RFU IGLL1 (11728026_x_at) / Fold change /veh IGLL1 (11728026_x_at): dose or concentration left out as unconfirmed
Details: MV-4-11 cells, 48 hours

For `Nc1ncn([C@@H]2O[C@H](CO)[C@@H](O)[C@H]2O)c(=O)n1` [azacitidine], the “RFU IGLL1 (11728026_x_at)” value was 12.85 RFU.
